Assay [1] concerns Tie2 in HUVECs. Description: in vitro Tie2 phosphorylation (immunoprecipitation/immunoblot), HUVEC. In kind it is cell-based, human. As to conditions: Ang1 15–400 ng/mL (0.05–1.43 nM), VT 5–100 ng/mL (0.36–7.1 nM), 10, 15 or 45 min, with or without starvation. An excerpt: Figure 7 In vitro Vasculotide vs. Ang1 stimulations: effects on Tie2 receptor phosphorylation in primary endothelial cells—HUVECs (A-E) and HMVEC-DBls (F) • A–F Primary human umbilical vein endothelial cells (HUVECs) or primary human dermal microvascular endothelial cells (HMVEC-DBls) were stimulated at 80% confluency with Vasculotide (treatment), Ang1 (positive control; ligand of Tie2), PBS (vehicle control), or VEGF (negative control; non-ligand of Tie2). Tie2 was immunoprecipitated from cell lysates and immunoblotted for total Tie2 or phosphotyrosine. […] Source data are available online for this figure. […]
Nodule areas were then […]
unit converted (to μm2) and normalized to total lung section area (including air spaces) using ROI measurements from ImageJ software (NIH).
7. Histological assessment of primary tumor viability and hypoxia
5-μm thick sections of PFA-fixed paraffin-embedded mammary fat pad tumors were subjected to: (i) standard hematoxylin and eosin (H&E) staining to visualize viable vs. necrotic regions; or (ii) standard IHC staining with a goat anti-human carbonic anhydrase IX (CAIX or CA9) antibody (R&D Systems AF2188, 1:80 dilution) plus hematoxylin counterstain to visualize hypoxic regions. […]
IHC staining for CAIX further marks a hypoxic band at the edge of the viability rim bordering the necrotic core – the thickness of this hypoxic edge was averaged over 12 measurements spaced 30o apart (see Fig. 5E).
8. Western immunoblotting for total or phosphorylated Tie2
Cultured ECs and TCs were lysed in RIPA lysis buffer as previously described (Bogdanovic et al, 2006).
Lung/ liver/ kidney tissues, which had been snap-frozen in liquid nitrogen once harvested from mice, were homogenized in RIPA lysis buffer (50 mM Tris-HCl pH 7.5, 150 mM NaCl, 1% Igepal, 0.5% sodium deoxycholate, 0.1% SDS, 1 mM Na3VO4 and protease inhibitors) at 4 °C. […]
(§1) Semi-quantitative densitometry analysis of immunoblots was performed using the ChemiGenius2 bioimaging system and GeneSnap/GeneTools software (Syngene). […]
For orientation: Immunoblotting shows a protein as a band on a membrane.

For assay [2], the system named is human Tie2-Fc (extracellular domain of Tie2). Put plainly: pull-down assay, human Tie2-Fc. As to conditions: human Tie2-Fc on protein A sepharose; rhAng1 20 ng or VT 100 ng, pH 7.4, 4°C; Fig9A,B. In kind it is binding.
Description: To better understand the difficulties we had in observing Tie2 activation by VT, we sought to characterize the binding affinity and kinetics of VT to Tie2. Purified human or mouse Tie2-Fc (i.e., Fc-conjugated extracellular domains of Tie2) were first coupled to protein A sepharose beads for pull-down experiments (Fig9A and B) or immobilized on a Biacore CM5 sensor chip for surface plasmon resonance (SPR) experiments (Fig9C and Supplementary Fig S3).
Figure 9 Binding of Vasculotide vs. Ang1 variants to the extracellular domain of Tie2 • A–B Pull-down assay. Input ligands—rhAng1 (A) and VT (B)—were incubated with either protein A sepharose beads only, bead-conjugated mouse Tie2-Fc (mTie2), or bead-conjugated human Tie2-Fc (hTie2). […] The ‘unbound’ fraction is 7% of residual/free ligands remaining in the supernatant. • C Quantitative kinetics analysis by SPR. All analytes were run at increasing concentrations of 0.625, 1.25, 2.5, 5, and 10 nM, at 37°C and pH 7.4. […] Source data are available online for this figure. […]
as §1

For “CHHHRHSF [Vasculotide, 4-armed maleimide-functionalized polyethylene glycol (PEG) backbone to link together four cysteine-capped T7 peptides, that is, CHHHRHSF]”, the figures for the Tie2 phosphorylation result in assay [1] and in assay [1] (listed as VT) were “did not lead to increases in the pTie2/Tie2 ratio” and “did not lead to any appreciable induction of Tie2 phosphorylation”, respectively. For the same molecule, the “pull-down by Tie2-Fc” value in assay [2] is “did not pull down any appreciable levels”.

B1: recombinant human Ang1 (rhAng1) (ligand, UniProt Q15389 16-498, looked up)
chain: HIGCSNQRRSPENSGRRYNRIQHGQCAYTFILPEHDGNCRESTTDQYNTNALQRDAPHVEPDFSSQKLQHLEHVMENYTQWLQKLENYIVENMKSEMAQIQQNAVQNHTATMLEIGTSLLSQTAEQTRKLTDVETQVLNQTSRLEIQLLENSLSTYKLEKQLLQQTNEILKIHEKNSLLEHKILEMEGKHKEELDTLKEEKENLQGLVTRQTYIIQELEKQLNRATTNNSVLQKQQLELMDTVHNLVNLCTKEGVLLKGGKREEEKPFRDCADVYQAGFNKSGIYTIYINNMPEPKKVFCNMDVNGGGWTVIQHREDGSLDFQRGWKEYKMGFGNPSGEYWLGNEFIFAITSQRQYMLRIELMDWEGNRAYSQYDRFHIGNEKQNYRLYLKGHTGTAGKQSSLILHGADFSTKDADNDNCMCKCALMLTGGWWFDACGPSNLNGMFYTAGQNHGKLNGIKWHYFKGPSYSLRSTTMMIRPLDF
notes: angiopoietin-1, human, recombinant; also called angiopoietin-1; source: bought: R&D Systems (named for the Boyden chamber experiments)
For the molecule B1, the Tie2 phosphorylation result in assay [1] was “strongly and consistently activated Tie2 phosphorylation”. Further, in assay [2], the “pull-down by Tie2-Fc” value is “effectively pulled down the majority”.
